# Laboratory results from patent US20250084092A1, “ANNULATED PYRIDAZINE COMPOUND” (Nico Therapeutics, Inc., priority 2021, published 2025).
# Counter-ions that a name gives are not always drawn.
# Target: T1, NLRP3 inflammasome (Homo sapiens, UniProt Q96P20)
# T1 construct: endogenous in cells; host or cells: THP-1 cells (PMA-differentiated, stimulated with LPS and ATP)
# Assay: THP-1 IL-1β production inhibition test
# Format: cell-based
# Conditions: PMA-treated THP-1 cells, LPS 50 ng/mL + ATP 5 mM, 2 hours, IL-1β in supernatant by ELISA
# Protocol: PMA (phorbol myristate acetate, SIGMA, P1585) was added to THP-1 cells in an amount of 50 ng/mL to culture the cells for 2 days at 37° C. […] LPS (Lipopolysaccharide, SIMGA, L2880) and ATP (Adenosine triphosphate, SIGMA, A2383) were added so that final concentrations become 50 ng/mL and 5 mM, respectively, followed by culturing at 37° C. for 2 hours. The supernatants were collected to measure the concentrations of IL-1β by ELISA (DuoSet ELISA human IL-1β, R&D Systems, DY201). The IL-1β concentrations were plotted against log concentrations of test compounds, and an IC50 value was calculated by sigmoid Emax model nonlinear regression analysis.
# T1 sequence (Q96P20 whole entry): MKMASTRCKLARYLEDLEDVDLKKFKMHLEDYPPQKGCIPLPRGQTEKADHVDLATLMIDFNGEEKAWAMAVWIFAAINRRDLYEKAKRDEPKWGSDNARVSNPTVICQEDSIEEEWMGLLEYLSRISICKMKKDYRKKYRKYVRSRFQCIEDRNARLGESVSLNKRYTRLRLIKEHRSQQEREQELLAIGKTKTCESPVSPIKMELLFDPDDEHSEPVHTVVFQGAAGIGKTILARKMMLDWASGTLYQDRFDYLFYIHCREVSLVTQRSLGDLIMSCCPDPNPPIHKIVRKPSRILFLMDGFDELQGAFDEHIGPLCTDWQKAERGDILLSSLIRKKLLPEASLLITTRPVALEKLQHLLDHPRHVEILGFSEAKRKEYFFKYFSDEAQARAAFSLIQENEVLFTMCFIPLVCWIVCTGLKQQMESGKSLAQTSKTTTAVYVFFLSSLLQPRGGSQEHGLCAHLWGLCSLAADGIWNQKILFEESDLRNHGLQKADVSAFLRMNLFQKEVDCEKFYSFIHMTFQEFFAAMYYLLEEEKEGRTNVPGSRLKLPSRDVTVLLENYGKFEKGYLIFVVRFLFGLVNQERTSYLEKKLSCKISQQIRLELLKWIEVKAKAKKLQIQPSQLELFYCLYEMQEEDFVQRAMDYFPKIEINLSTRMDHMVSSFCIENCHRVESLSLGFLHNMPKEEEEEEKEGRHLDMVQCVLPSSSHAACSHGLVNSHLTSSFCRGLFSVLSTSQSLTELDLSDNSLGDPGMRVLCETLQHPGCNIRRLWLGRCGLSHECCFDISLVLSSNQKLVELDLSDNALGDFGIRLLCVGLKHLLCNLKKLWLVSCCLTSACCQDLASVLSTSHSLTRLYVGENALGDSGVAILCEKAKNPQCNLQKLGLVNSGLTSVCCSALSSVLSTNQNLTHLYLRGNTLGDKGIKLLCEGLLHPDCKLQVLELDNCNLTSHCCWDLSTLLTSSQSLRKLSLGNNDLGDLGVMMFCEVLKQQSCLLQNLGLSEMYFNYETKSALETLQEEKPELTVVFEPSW
row,Structure (SMILES),IC50 [nM]
1,Oc1cc(C2CC2)ccc1-c1nnc(N[C@@H]2CCCC[C@H]2O)c2c1CCOC2 [52(1)],4.1
2,Oc1cc(C(F)(F)F)ccc1-c1nnc(NC[C@H]2CCCO2)c2ccccc12 [Example 14],7.6
3,C[C@@H](O)CNc1nnc(-c2ccc(C(F)(F)F)cc2O)c2c1[C@H]1CC[C@@H]2CC1 [Example 24],74
4,Cc1ccc(-c2nnc(NCCCO)c3c2CCCC3)cc1 [Example 6],9000
5,Oc1cc(C(F)(F)F)ccc1-c1nnc(N[C@@H]2CCCC[C@H]2O)c2c1CCC2 [Example 19],81
6,Oc1cc(Cl)ccc1-c1nnc(N[C@@H]2CCCC[C@H]2O)c2c1CCCC2 [Example 25],4.6
7,C[C@@H](O)CNc1nnc(-c2ccc(C(F)(F)F)cc2O)c2c1CCC2 [Example 18],34
8,Oc1cc(C(F)(F)F)ccc1-c1nnc(N[C@H]2CCC(F)(F)C2)c2ccccc12 [Example 11],16
9,Oc1cc(C2CC2)ccc1-c1nnc(N[C@@H]2CCCC[C@H]2O)c2c1COCC2 [52(2)],27
10,N#C[C@@H]1CCCC[C@H]1Nc1nnc(-c2ccc(C(F)(F)F)cc2O)c2c1COCC2 [72(1)],27
11,C[C@]1(O)C[C@@H](Nc2nnc(-c3ccc(OC(F)(F)F)cc3O)c3c2COCC3)C1 [57(1)],19
12,C[C@@H](O)CCc1nnc(-c2ccc(C(F)(F)F)cc2O)c2c1CCC2 [Example 22],69
13,C[C@]1(O)C[C@@H](Nc2nnc(-c3ccc(OC(F)(F)F)cc3O)c3c2CCCC3)C1 [Example 32],76
14,Oc1cc(C(F)(F)F)ccc1-c1nnc(N[C@@H]2CCCC[C@H]2O)c2ccccc12 [Example 15],2.8
15,C[C@@H](O)CNc1nnc(-c2ccc(C(F)(F)F)cc2O)c2cnccc12 [16(2)],20
16,CC(=O)N[C@@H]1CCCC[C@H]1Nc1nnc(-c2ccc(C(F)(F)F)cc2O)c2ccccc12 [Example 23],17
17,Oc1cc(C(F)(F)F)ccc1-c1nnc(N[C@H]2CCCC[C@@H]2O)c2c1CCOC2 [66(2)],180
18,[O-][S+]1Cc2c(N[C@@H]3CCCC[C@H]3O)nnc(-c3ccc(C(F)(F)F)cc3O)c2C1 (stereo partly shown) [131(2)],79
19,C[C@]1(O)C[C@@H](Nc2nnc(-c3ccc(C(F)(F)F)cc3O)c3c2CCCC3)C1 [Example 29],18
20,Oc1cc(C(F)(F)F)ccc1-c1nnc(N[C@H]2CCCC[C@@H]2O)c2c1COCC2 [66(1)],990
21,N#C[C@@H]1CCCC[C@H]1Nc1nnc(-c2ccc(C(F)(F)F)cc2O)c2c1CCOC2 [72(2)],14
22,C[C@@H](O)CNc1nnc(-c2ccc(C(F)(F)F)cc2O)c2ccncc12 [16(1)],1.9
23,"Oc1cc(OC(F)(F)F)ccc1-c1nnc(N[C@@H]2CCCC[C@H]2O)c2c1COCC2 [3(2), 2-(1-{[(1R,2R)-2-hydroxycyclohexyl]amino}-7,8-dihydro-5H-pyrano[3,4-d]pyridazin-4-yl)-5-(trifluoromethoxy)phenol]",7
24,C[C@@H](O)CCc1nnc(-c2ccc(C(F)(F)F)cc2O)c2c1CCCC2 [Example 20],22
25,Cc1cc(O)c(-c2nnc(N[C@@H]3CCCC[C@H]3O)c3c2COCC3)c(F)c1 [62(2)],27
26,"Oc1cc(C(F)(F)F)ccc1-c1nnc(N[C@@H]2CCCC[C@@H]2O)c2c1COCC2 [4(2), 2-(1-{[(1R,2S)-2-hydroxycyclohexyl]amino}-7,8-dihydro-5H-pyrano[3,4-d]pyridazin-4-yl)-5-(trifluoromethyl)phenol]",15
27,C[C@@H](O)CNc1nnc(-c2ccc(C(F)(F)F)cc2C(F)(F)F)c2c1CN(Cc1ccccc1)CC2 [Example 9],1300

# Second part, the compound after the results:
row,IC50 [nM],Structure (SMILES)
1,560,Oc1cc(C(F)(F)F)ccc1-c1nnc(N[C@@H]2CCCC[C@H]2O)c2c1CNCC2 [Example 91]
2,86,"O=S1(=O)CCc2c(-c3ccc(C(F)(F)F)cc3O)nnc(N[C@@H]3CCCC[C@H]3O)c2C1 [Example 129, 4-{[(1R,2R)-2-hydroxycyclohexyl]amino}-1-[2-hydroxy-4-(trifluoromethyl)phenyl]-7,8-dihydro-6λ^6-thiopyrano[3,4-d]pyridazin-6,6(5H)-dione]"
3,11,Oc1cc(C(F)F)ccc1-c1nnc(N[C@@H]2CCCC[C@H]2O)c2c1COC2 [Example 115]
4,8.5,CN1CCC[C@@H](Nc2nnc(-c3ccc(C(F)(F)F)cc3O)c3c2CSC3)C1 [Example 121]
5,48,CC(=O)N1CCC[C@@H](Oc2nnc(-c3ccc(C(F)(F)F)cc3O)c3ccccc23)C1 [Example 65]
6,5200,"C[C@@H](O)CNc1nnc(-c2ccc(C(F)(F)F)cc2C(F)(F)F)c2c1CN(S(C)(=O)=O)CC2 [Example 80, (2R)-1-({1-[2,4-bis(trifluoromethyl)phenyl]-6-(methanesulfonyl)-5,6,7,8-tetrahydropyrido[3,4-d]pyridazin-4-yl}amino)propan-2-ol]"
7,19,Oc1cc(Cl)ccc1-c1nnc(N[C@@H]2CCOC[C@H]2O)c2c1CCCC2 [Example 39]
8,100,COc1ccc(-c2nnc(N[C@H]3C[C@@](C)(O)C3)c3c2CCCC3)c(O)c1 [Example 33]
9,96,Oc1ccccc1-c1nnc(N[C@@H]2CCCC[C@H]2O)c2c1CCOC2 [Example 61]
10,4.4,Oc1cc(OC(F)F)ccc1-c1nnc(N[C@@H]2CCCC[C@H]2O)c2c1CCCOC2 [Example 116]
11,1.5,CN1CCC[C@@H](Nc2nnc(-c3ccc(Cl)cc3O)c3c2COCC3)C1 [Example 109]
12,6.8,Oc1cc(C(F)(F)F)ccc1-c1nnc(N[C@@H]2CCOC[C@H]2O)c2c1CCCCC2 [Example 44]
13,31,C[C@@]1(O)CCCC[C@H]1Nc1nnc(-c2ccc(OC(F)F)cc2O)c2c1CCCC2 [Example 89]
14,3.5,Oc1cc(C(F)(F)F)ccc1-c1nnc(N[C@@H]2CCC[C@H](O)C2)c2c1CCOC2 [Example 104]
15,13,CN1CCC[C@@H](Oc2nnc(-c3ccc(C(F)(F)F)cc3O)c3ccccc23)C1 [Example 67]
16,50,OCC12CC(Nc3nnc(-c4ccc(C(F)(F)F)cc4O)c4c3CCCC4)(C1)C2 [Example 40]
17,9.4,CC(=O)N1CCC[C@@H](Nc2nnc(-c3ccc(C(F)(F)F)cc3O)c3ccccc23)C1 [Example 63]
18,4.4,Oc1cc(C(F)(F)F)ccc1-c1nnc(N[C@@H]2CCCC[C@H]2O)c2c1CCSC2 [Example 103]
19,11,Cc1ccc(-c2nnc(N[C@@H]3CCOC[C@H]3O)c3c2CCCCC3)c(O)c1 [Example 46]

row,IC50 [nM],Structure (SMILES)
1,5.1,"Oc1cc(C(F)(F)F)ccc1-c1nnc(N[C@@H]2CCCC[C@H]2O)c2sccc12 [Example 94, 2-(7-{[(1R,2R)-2-hydroxycyclohexyl]amino}thieno[2,3-d]pyridazin-4-yl)-5-(trifluoromethyl)phenol]"
2,22,O=S1(=O)CCc2c(N[C@@H]3CCCC[C@H]3O)nnc(-c3ccc(C(F)(F)F)cc3O)c2C1 [Example 130]
3,11,Oc1cc(OC(F)(F)F)ccc1-c1nnc(N[C@@H]2CCCC[C@H]2O)c2c1CCOCC2 [Example 68]
4,36,Cc1ccc(-c2nnc(N[C@@H]3CCCC[C@@]3(C)O)c3c2CCCC3)c(O)c1 [Example 55]
5,8.7,Oc1cc(OC(F)(F)F)ccc1-c1nnc(N[C@@H]2CCCC[C@H]2O)c2c1CCCCC2 [Example 43]
6,3.6,Oc1cc(C(F)(F)F)ccc1-c1nnc(N[C@@H]2CCCC[C@H]2O)c2c1CCC1(COC1)C2 [Example 107]
7,6.5,Oc1cc(C(F)F)ccc1-c1nnc(N[C@@H]2CCCC[C@H]2O)c2c1CCOC2 [Example 87]
8,14,Oc1cc(OC(F)(F)F)ccc1-c1nnc(N[C@@H]2CCOC[C@H]2O)c2c1CCCCC2 [Example 45]
9,40,Oc1cc(C(F)(F)F)ccc1-c1nnc(N[C@@H]2CCCC[C@H]2O)c2c1CCCO2 [Example 41]
10,200,"CS(=O)(=O)N1CCc2c(-c3ccc(C(F)(F)F)cc3O)nnc(N[C@@H]3CCCC[C@H]3O)c2C1 [Example 93, 2-[4-{[(1R,2R)-2-hydroxycyclohexyl]amino}-6-(methanesulfonyl)-5,6,7,8-tetrahydropyrido[3,4-d]pyridazin-1-yl]-5-(trifluoromethyl)phenol]"
11,1.3,"Oc1cc(C(F)(F)F)ccc1-c1nnc(N[C@@H]2CCCC[C@H]2O)c2c1CCOC2 [Example 133, 2-(4-{[(1R,2R)-2-hydroxycyclohexyl]amino}-7,8-dihydro-5H-pyrano[3,4-d]pyridazin-1-yl)-5-(trifluoromethyl)phenol monohydrochloride]"
12,12,"Oc1cc(C(F)(F)F)ccc1-c1nnc(N[C@@H]2CCCC[C@H]2O)c2c1CCNC2 [Example 90, 2-(4-{[(1R,2R)-2-hydroxycyclohexyl]amino}-5,6,7,8-tetrahydropyrido[3,4-d]pyridazin-1-yl)-5-(trifluoromethyl)phenol dihydrochloride]"
13,3.9,Oc1cc(C(F)(F)F)ccc1-c1nnc(N[C@@H]2CCCC[C@H]2O)c2c1CCCCC2 [Example 34]
14,40,C[C@]1(O)C[C@@H](Nc2nnc(-c3ccc(C(F)(F)F)cc3O)c3c2CCC3)C1 [Example 59]
15,37,Oc1cc(C(F)(F)F)ccc1-c1nnc(N[C@@H]2CCCC[C@H]2O)c2c1OCCC2 [Example 42]
16,33,"CC(=O)NCCCCOc1nnc(-c2ccc(C(F)(F)F)cc2O)c2ccccc12 [Example 81, N-[4-({4-[2-hydroxy-4-(trifluoromethyl)phenyl]phthalazin-1-yl}oxy)butyl]acetamide]"
17,23,CN1CCc2c(-c3ccc(OC(F)(F)F)cc3O)nnc(N[C@@H]3CCCC[C@H]3O)c2C1 [Example 76]
18,13,Oc1cc(C2CC2)ccc1-c1nnc(N[C@@H]2CCCC[C@H]2O)c2c1CCCC2 [Example 51]
